Earlier results as cited in patent publication US20110071172A1, “SUBSTITUTED QUINAZOLINES AS BLOOD PLATELET LOWERING AGENTS” (Shire LLC, priority 2008, published 2011).

Key:
[1] = test system: human megakaryocytopoiesis
[2] = biological target: human phosphodiesterase 111 (PDE III); details: for IC50: read-out: IC50, PDE III inhibition
[3] = test system: erythroid or myelomonocytic differentiation; details: stimulated by erythropoietin or granulocyte-macrophage colony-stimulating factor

Row | IC50 ([1]; estimated, in vitro, dose-dependent, read-out: IC50, inhibition of TPO-induced megakaryocytopoiesis) [nM] | first pass effect (in vivo) [%] | half-life (typical) [h] | exposure in vivo relative to parent drug (typical exposures versus anagrelide) | potency as PDE III inhibitor relative to anagrelide ([2]; ratio versus anagrelide) | Compound | IC50 [2] [nM] | effect on erythroid or myelomonocytic differentiation [3] | potency in inhibition of megakaryocytopoiesis relative to parent drug ([1]; versus anagrelide)
1 | ~26 | > 50 |  |  |  | O=C1CN2Cc3c(ccc(Cl)c3Cl)N=C2N1 [Anagrelide, 6,7-dichloro-1,5-dihydroimidazo[2,1-b]-quinazolin-2(3H)-one] | ~29 | does not affect | 
2 |  |  | 2.5 | 2-3 fold | over 40 fold | O=C1NC2=Nc3ccc(Cl)c(Cl)c3CN2C1O (stereo not drawn) [3-hydroxyanagrelide] |  |  | no more potent than the parent drug
3 |  |  |  |  |  | Cc1[nH]c(=O)c(C#N)cc1-c1ccncc1 [milrinone] | 170 to 350 |  | 
